{
  "source": "PubChem BioAssay AID588780",
  "about": "(Sanford-Burnham Center for Chemical Genomics, 2011)",
  "note": "Calls of active or inactive are those of the source.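 Rule for the calls: active = compounds whose fitted half-maximal concentration in the cell-protection dose series is at or below a set limit; inactive = the rest.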",
  "data": [
    {"system": "H9c2 cardiomyocytes, 2-deoxyglucose stress, ATP luminescence, 2 h", "assay": "H9c2 cell survival under 2-deoxyglucose stress – uHTS hits, dose response (AID 588780)", "values": [
      {"smiles": "O=C(Nc1ccc2c(c1)OCO2)c1cnn2c(C(F)(F)F)cc(-c3ccco3)nc12", "IC50": "7.33 µM"},
      {"smiles": "CNC(=O)/C(C#N)=C/c1c(N(Cc2ccccc2)Cc2ccccc2)nc2ccccn2c1=O", "IC50": "16 µM"},
      {"smiles": "CC(=O)CCc1ccc(Oc2nc(-c3cccnc3)nc3ccccc23)cc1", "IC50": "> 79 µM (inactive)"},
      {"smiles": "CN(C)C(=O)/C=C\\c1cn(-c2ccccc2)nc1-c1ccc2c(c1)OCCO2", "IC50": "> 79 µM (inactive)"},
      {"smiles": "COc1ccc(NCc2cc3cc(OC)ccc3[nH]c2=O)cc1", "IC50": "> 79 µM (inactive)"},
      {"smiles": "COC(=O)Sc1nc(N2CCOCC2)c2c(c1C#N)CC(C)(C)OC2", "IC50": "> 79 µM (inactive)"},
      {"smiles": "Cc1ccc2nc(SCc3nc4ccccc4c(=O)[nH]3)[nH]c2c1", "IC50": "> 79 µM (inactive)"},
      {"smiles": "COc1ccc(CSc2nc3ccccc3c(=O)[nH]2)cc1F", "IC50": "> 79 µM (inactive)"},
      {"smiles": "Cn1c2ccccc2c2cc(/C=N/NC(=O)c3cc(O)ccc3O)ccc21", "IC50": "> 79 µM (inactive)"},
      {"smiles": "O=C(NCCc1c[nH]c2ccccc12)C(=O)NCC(c1ccco1)N1CCN(c2ccccc2F)CC1", "note": "(configuration not stated)", "IC50": "> 79 µM (inactive)"},
      {"smiles": "CCCn1c(NC(=O)c2ccccc2)nc2ccccc21", "IC50": "> 79 µM (inactive)"},
      {"smiles": "Fc1ccc(-n2cc(-c3ccccc3)c3c(N4CCOCC4)ncnc32)cc1", "IC50": "> 79 µM (inactive)"},
      {"smiles": "O=C(N/N=C\\c1ccccn1)c1cccc(C(=O)N/N=C\\c2ccccn2)n1", "IC50": "36 µM (inactive)"},
      {"smiles": "O=C(COC(=O)Cc1n[nH]c(=O)c2ccccc12)Nc1ccc(Cl)cn1", "IC50": "> 79 µM (inactive)"},
      {"smiles": "COC(=O)c1cc2ccc(OC)cc2c2cc(OC)c(OC)cc12", "IC50": "> 79 µM (inactive)"},
      {"smiles": "COc1cc2c(C#CCCCO)c(-c3ccsc3)oc(=O)c2cc1OC", "IC50": "> 79 µM (inactive)"},
      {"smiles": "Cc1ccc(NC(=O)c2nc[nH]c2C(=O)NCCCCCCNC(=O)c2[nH]cnc2C(=O)Nc2ccc(C)cc2)cc1", "IC50": "> 79 µM (inactive)"},
      {"smiles": "N#CCCSc1ccccc1NC(=O)c1cc(=O)c2ccccc2o1", "IC50": "> 79 µM (inactive)"},
      {"smiles": "O=c1c(O)c(-c2cccs2)oc2ccc(Cl)cc12", "IC50": "20.6 µM"},
      {"smiles": "O=S(=O)(c1cccc(F)c1)N1CCN(c2nc(-c3cccnc3)nc3ccccc23)CC1", "IC50": "16.1 µM"},
      {"smiles": "COc1ccc2nc(Nc3nc(CSc4nc5ccccc5[nH]4)cc(=O)[nH]3)nc(C)c2c1", "IC50": "> 79 µM (inactive)"},
      {"smiles": "CCOC(=O)C1=c2s/c(=C\\c3ccncc3)c(=O)n2C(N)=C(C(=O)OC)C1c1ccncc1", "note": "(configuration not stated)", "IC50": "> 79 µM (inactive)"},
      {"smiles": "N#CCCn1c(SCC(=O)c2c[nH]c3ccccc23)nc2ccccc21", "IC50": "49.4 µM (inactive)"},
      {"smiles": "CCN(CC(=O)Nc1c(F)cccc1F)C(=O)Cn1[nH]c(=O)c2ccccc2c1=O", "IC50": "> 79 µM (inactive)"},
      {"smiles": "COc1ccc(Cl)cc1NC(=O)CCS(=O)(=O)c1cc2c(cc1C)NC(=O)CO2", "IC50": "21.5 µM"},
      {"smiles": "Cc1ccc(NC(=O)c2cc(=O)c3ccccc3o2)cc1S(=O)(=O)N1CCOCC1", "IC50": "35.4 µM (inactive)"},
      {"smiles": "COc1cc(NC(=O)c2c(OC)cccc2OC)ccc1NC(=O)c1cc2ccccc2o1", "IC50": "12.7 µM"},
      {"smiles": "COc1ccc(C(C(=O)NC2CCCCC2)N(Cc2cccs2)C(=O)Cc2c[nH]c3ccccc23)cc1OC", "note": "(configuration not stated)", "IC50": "12.5 µM"},
      {"smiles": "CCOc1ccc(C(C(=O)NCC2CCCO2)N(C(=O)c2snc(C(N)=O)c2N)c2ccccc2F)cc1", "note": "(configuration not stated)", "IC50": "20.6 µM"},
      {"smiles": "COc1cc(-c2cc(NC=O)c3ncc(-c4ccc(C(C)=O)cc4)n3c2)ccc1O", "IC50": "> 79 µM (inactive)"},
      {"smiles": "COc1ccc(N2CC(C(=O)NCc3n[nH]c(=O)c4ccccc34)CC2=O)cc1", "note": "(configuration not stated)", "IC50": "> 79 µM (inactive)"},
      {"smiles": "CCCn1nc(C(=O)Nc2nc(-c3ccccn3)cs2)c2ccccc2c1=O", "IC50": "> 79 µM (inactive)"},
      {"smiles": "O=C1c2ccccc2NC(c2ccc([N+](=O)[O-])cc2)N1O", "note": "(configuration not stated)", "IC50": "> 79 µM (inactive)"},
      {"smiles": "COc1cc(/C=N/NC(=O)c2ccncc2)ccc1OCC(=O)Nc1ccc(C)c(C)c1", "IC50": "> 79 µM (inactive)"},
      {"smiles": "Cn1c(=O)c2c(nc(NCc3ccc4c(c3)OCO4)n2C)n(C)c1=O", "IC50": "> 79 µM (inactive)"},
      {"smiles": "CCN(CC)C(=O)CSc1nc2ccccc2c(=O)[nH]1", "IC50": "> 79 µM (inactive)"},
      {"smiles": "COc1cccc(OC)c1-c1nn2c(-c3ccco3)nnc2s1", "IC50": "> 79 µM (inactive)"},
      {"smiles": "Cc1nc2c(c(=O)n1CCC1=CCCCC1)c1nc3ccccc3nc1n2/N=C/c1ccccc1", "IC50": "11.7 µM"},
      {"smiles": "C/C(=N\\NC(=O)c1ccccc1-n1cccc1)c1ccccn1", "IC50": "> 79 µM (inactive)"},
      {"smiles": "Oc1ccc(Br)cc1C=Nc1ccc2c3c(cccc13)CC2", "IC50": "59.1 µM (inactive)"},
      {"smiles": "COc1cc(-c2cnc3c(NC=O)cc(-c4ccsc4)cn23)cc(OC)c1OC", "IC50": "> 79 µM (inactive)"},
      {"smiles": "CCOC(=O)c1ccccc1NC(=O)c1ccc2c(=O)n3c(nc2c1)CCCCC3", "IC50": "> 79 µM (inactive)"},
      {"smiles": "CC(=O)Nc1cc(-c2cccc(C(=O)N(C)C)c2)cn2c(-c3ccc(C(C)=O)cc3)cnc12", "IC50": "15.1 µM"},
      {"smiles": "Cc1ccc(S(=O)(=O)N2CCN(C(=O)CCc3nc4ccccc4c(=O)[nH]3)CC2)c(C)c1", "IC50": "> 79 µM (inactive)"},
      {"smiles": "CCCN1C(=O)/C(=C/c2nc3ccccc3c(=O)[nH]2)c2ccccc21", "IC50": "11.2 µM"},
      {"smiles": "O=C(C[C@H]1C/C=C\\CC[C@H](Cc2ccc(F)cc2)C(=O)O[C@H](c2ccccc2)CNC1=O)N[C@H](CO)Cc1ccccc1", "IC50": "> 79 µM (inactive)"},
      {"smiles": "Cc1c(NC(=O)Cn2[nH]c(=O)c3ccccc3c2=O)c(=O)n(-c2ccccc2)n1C", "IC50": "> 79 µM (inactive)"}
    ]}
  ]
}
